Test results as given in patent US10160756B2 (priority 2014, dated 2018).
Where two headings read alike, the source gives them in different places.

Columns and labels:
MARV VP40 (mVP40) VLPs = experiment: organism not typed; type: cell-based, Marburg virus (MARV)
EBOV VP40 (eVP40) VLPs = type: cell-based, Ebola virus (EBOV)
VSV-WT = type: cell-based, vesicular stomatitis virus (Indiana strain)
mVP40-Nedd4 interaction = mVP40-Nedd4 interaction (Homo sapiens, UniProt P46934); type: cell-based
E-BiMC (Ebola VP40) = type: cell-based
LFV Z VLPs = type: cell-based, Lassa fever virus (LFV)
VSV-M40 = type: cell-based, vesicular stomatitis virus

Sequence of mVP40-Nedd4 interaction (P46934 whole entry): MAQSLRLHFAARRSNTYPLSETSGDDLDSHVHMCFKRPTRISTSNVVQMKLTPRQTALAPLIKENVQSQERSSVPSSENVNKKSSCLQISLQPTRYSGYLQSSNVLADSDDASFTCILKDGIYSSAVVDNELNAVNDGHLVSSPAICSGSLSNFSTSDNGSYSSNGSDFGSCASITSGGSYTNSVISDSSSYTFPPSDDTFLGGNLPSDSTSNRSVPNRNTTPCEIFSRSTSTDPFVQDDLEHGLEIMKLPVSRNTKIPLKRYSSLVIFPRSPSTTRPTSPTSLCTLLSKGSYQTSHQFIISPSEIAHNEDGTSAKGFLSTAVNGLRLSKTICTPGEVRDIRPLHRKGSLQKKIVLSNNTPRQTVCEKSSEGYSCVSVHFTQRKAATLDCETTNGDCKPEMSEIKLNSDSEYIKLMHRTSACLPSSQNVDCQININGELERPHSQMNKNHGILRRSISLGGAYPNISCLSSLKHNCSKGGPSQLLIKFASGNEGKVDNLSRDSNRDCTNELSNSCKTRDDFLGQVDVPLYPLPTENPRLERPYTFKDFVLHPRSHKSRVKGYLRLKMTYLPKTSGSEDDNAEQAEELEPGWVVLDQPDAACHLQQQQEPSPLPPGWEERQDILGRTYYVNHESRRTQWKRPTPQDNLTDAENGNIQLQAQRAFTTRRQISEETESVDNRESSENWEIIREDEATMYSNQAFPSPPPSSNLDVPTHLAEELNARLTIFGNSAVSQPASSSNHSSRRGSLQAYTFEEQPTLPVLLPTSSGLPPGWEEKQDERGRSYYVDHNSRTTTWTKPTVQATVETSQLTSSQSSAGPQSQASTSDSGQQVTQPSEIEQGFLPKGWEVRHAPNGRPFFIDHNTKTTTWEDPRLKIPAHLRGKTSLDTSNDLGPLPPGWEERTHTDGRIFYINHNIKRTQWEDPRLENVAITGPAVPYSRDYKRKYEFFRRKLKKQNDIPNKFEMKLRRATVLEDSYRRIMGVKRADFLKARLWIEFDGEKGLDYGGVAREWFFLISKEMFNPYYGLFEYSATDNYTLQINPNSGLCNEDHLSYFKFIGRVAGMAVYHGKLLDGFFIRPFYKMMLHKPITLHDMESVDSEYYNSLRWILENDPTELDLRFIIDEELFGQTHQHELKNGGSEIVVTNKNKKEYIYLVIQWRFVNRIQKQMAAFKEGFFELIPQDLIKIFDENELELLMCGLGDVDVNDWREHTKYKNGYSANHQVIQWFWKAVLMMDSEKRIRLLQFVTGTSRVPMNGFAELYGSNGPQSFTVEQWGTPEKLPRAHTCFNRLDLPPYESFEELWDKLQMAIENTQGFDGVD

O=C(CN1CCCC(c2nc3ccccc3s2)C1)NCCOc1ccccc1 (stereo not shown) [Compound 2e, 2-(3-(benzo[d]thiazol-2-yl)piperidin-1-yl)-N-(2-phenoxyethyl)acetamide]
activity in the M VP40 budding assay (MARV VP40 (mVP40) VLPs; 10 μM): active

Cc1n[nH]c(C)c1NC(=O)CN1CCCC(c2nc3ccccc3s2)C1 (stereo not shown) [Compound 2, 2-(3-(benzo[d]thiazol-2-yl)piperidin-1-yl)-N-(3,5-dimethyl-1H-pyrazol-4-yl) acetamide]
inhibition of egress of Marburg (M) VP40 VLPs (MARV VP40 (mVP40) VLPs; 20 μM): nearly full inhibition
inhibition of egress of mVP40 VLPs (MARV VP40 (mVP40) VLPs; 20 μM): 33 fold
inhibition of egress of mVP40 VLPs (MARV VP40 (mVP40) VLPs; 40 μM): 100 fold
inhibition of egress of eVP40 VLPs (EBOV VP40 (eVP40) VLPs; 20 μM): 2.5 fold
inhibition of egress of Ebola (E) VP40 VLPs (EBOV VP40 (eVP40) VLPs; 40 μM): nearly full inhibition
inhibition of egress of eVP40 VLPs (EBOV VP40 (eVP40) VLPs; 40 μM): 40 fold
inhibition of budding of live wild type VSV (VSV-WT): significantly inhibited
target engagement in M-BiMC assay (mVP40-Nedd4 interaction): showed target engagement
target engagement in E-BiMC assay (E-BiMC (Ebola VP40)): showed target engagement

Cc1nc2ccccc2nc1SCC(=O)NC(=O)NCC(F)(F)F [Compound 3, 2-((3-methylquinoxalin-2-yl)thio)-N-((2,2,2-trifluoroethyl)carbamoyl) acetamide]
activity in SAR studies, MVP40 VLP budding (words, FIG. 10) (MARV VP40 (mVP40) VLPs): very effective
inhibition of egress of mVP40 VLPs (MARV VP40 (mVP40) VLPs; 1.0 μM): 10 fold
inhibition of egress of mVP40 VLPs (MARV VP40 (mVP40) VLPs; 10 μM): 100 fold
inhibition of egress of mVP40 VLPs (MARV VP40 (mVP40) VLPs; 20 μM): 100 fold
inhibition of egress of eVP40 VLPs (EBOV VP40 (eVP40) VLPs; 1.0 μM): < 2 fold
inhibition of egress of eVP40 VLPs (EBOV VP40 (eVP40) VLPs; 10 μM): 4.5 fold
inhibition of egress of eVP40 VLPs (EBOV VP40 (eVP40) VLPs; 20 μM): 20 fold

CCNC(=O)NC(=O)CSc1nc2ccccc2nc1C [Compound 3f, N-(ethylcarbamoyl)-2-((3-methylquinoxalin-2-yl)thio)acetamide]
potency relative to 3 in the MVP40 budding assay (MARV VP40 (mVP40) VLPs): as or more potent than 3

Cc1nc2ccccc2nc1SCC(=O)NC(=O)NCc1cccs1 [Compound 3i, 2-((3-methylquinoxalin-2-yl)thio)-N-((thiophen-2-ylmethyl)carbamoyl)acetamide]
potency relative to 3 in the MVP40 budding assay (MARV VP40 (mVP40) VLPs): as or more potent than 3

Cc1n[nH]c(C)c1NC(=O)CN1CCN(c2nc3ccccc3s2)CC1 [Compound 2g, 2-(4-(benzo[d]thiazol-2-yl)piperazin-1-yl)-N-(3,5-dimethyl-1H-pyrazol-4-yl)acetamide]
activity in SAR studies, MVP40 VLP budding (words, FIG. 10) (MARV VP40 (mVP40) VLPs): inactive

Cc1nc2ccccc2nc1SCC(=O)NC(=O)Nc1ccccc1 [Compound 5, 2-((3-methylquinoxalin-2-yl)thio)-N-(phenylcarbamoyl)acetamide]
inhibition of egress of mVP40 VLPs (MARV VP40 (mVP40) VLPs; 0.1 μM): 25 fold
inhibition of egress of mVP40 VLPs (MARV VP40 (mVP40) VLPs; 0.5 μM): 100 fold
inhibition of egress of mVP40 VLPs (MARV VP40 (mVP40) VLPs; 1.0 μM): 100 fold
IC50 (MARV VP40 (mVP40) VLPs; read-out: IC50, anti-budding activity on MVP40): < 0.1 µM
inhibition of egress of eVP40 VLPs (EBOV VP40 (eVP40) VLPs; 0.1 μM): < 2 fold
inhibition of egress of eVP40 VLPs (EBOV VP40 (eVP40) VLPs; 0.5 μM): 3.5 fold
inhibition of egress of eVP40 VLPs (EBOV VP40 (eVP40) VLPs; 1.0 μM): 7 fold
inhibition of egress of LFV Z VLPs (LFV Z VLPs; 0.1 μM): approximately 3 fold
inhibition of egress of LFV Z VLPs (LFV Z VLPs; 0.5 μM): ~5 fold
inhibition of egress of VSV-WT (VSV-WT; 0.5 μM): 4 fold
inhibition of egress of VSV-M40 (VSV-M40; 0.1 μM): 2 fold
inhibition of egress of VSV-M40 (VSV-M40; 0.5 μM): 6 fold

Cc1nn(-c2ccccc2)c(C)c1NC(=O)CN1CCCC(c2nc3ccccc3s2)C1 (stereo not shown) [Compound 4, 2-(3-(benzo[d]thiazol-2-yl)piperidin-1-yl)-N-(3,5-dimethyl-1-phenyl-1H-pyrazol-4-yl)acetamide]
activity in SAR studies, MVP40 VLP budding (words, FIG. 10) (MARV VP40 (mVP40) VLPs): sub-micromolar
budding of mVP40 VLPs reduced (MARV VP40 (mVP40) VLPs): > 90%
inhibition of egress of mVP40 VLPs (MARV VP40 (mVP40) VLPs; 0.5 μM): 30 fold
inhibition of egress of mVP40 VLPs (MARV VP40 (mVP40) VLPs; 1.0 μM): 100 fold
inhibition of egress of eVP40 VLPs (EBOV VP40 (eVP40) VLPs; 0.5 μM): 3 fold
inhibition of egress of eVP40 VLPs (EBOV VP40 (eVP40) VLPs; 1.0 μM): 10 fold
inhibition of egress of LFV Z VLPs (LFV Z VLPs; 0.5 μM): > 5 fold
PPxY-dependent budding of VSV reduced (VSV-WT; 0.1 μM): approximately 50%
PPxY-dependent budding of VSV reduced (VSV-WT; 0.5 μM): ~100%
inhibition of egress of VSV-WT (VSV-WT; 0.5 μM): approximately 20 fold
inhibition of egress of live VSV-WT (VSV-WT; 0.5 μM): more than 1 log
titer of VSV-WT (VSV-WT; 0.5 μM): 1.8×10^6 pfu/ml
inhibition of egress of VSV-M40 (VSV-M40; 0.1 μM): approximately 2 fold
inhibition of egress of VSV-M40 (VSV-M40; 0.5 μM): 3 fold

O=C(CN1CCCC(c2nc3ccccc3s2)C1)NC(=O)NCC(F)(F)F (stereo not shown) [Compound 1, 2-(3-(benzo[d]thiazol-2-yl)piperidin-1-yl)-N-((2,2,2-trifluoroethyl)carbamoyl) acetamide]
inhibition of egress of mVP40 VLPs (MARV VP40 (mVP40) VLPs; 20 μM): ~5 fold
reduction of budding of VSV-WT (VSV-WT; 10 μM): approximately 5 fold

Cc1nc2ccccc2nc1SCC(=O)NC(=O)NC1CC1 [Compound 3g, N-(cyclopropylcarbamoyl)-2-((3-methylquinoxalin-2-yl)thio)acetamide]
potency relative to 3 in the MVP40 budding assay (MARV VP40 (mVP40) VLPs): as or more potent than 3
